Assay results from patent publication US20070049564A1 (Wyeth, priority 2005, published 2007).
Read-outs that look alike come from different tables or passages of the source.

Assays:
[1] = tested on: E. faecium GC 4556; test: MIC, broth microdilution; settings: Enterococcus faecium
[2] = tested on: S. aureus GC 4536; test: MIC, broth microdilution; settings: Staphylococcus aureus
[3] = tested on: E. coli GC 2232; test: MIC, broth microdilution; settings: Escherichia coli
[4] = tested on: S. aureus GC 2216; test: MIC, broth microdilution; settings: Staphylococcus aureus
[5] = tested on: E. coli GC 2235; test: MIC, broth microdilution; settings: Escherichia coli
[6] = tested on: Staph.; test: Range of MIC for Staph. strains, including MRSA; settings: Staphylococcus aureus
[7] = tested on: S. pneumoniae* GC 4465; test: MIC, broth microdilution; settings: Streptococcus pneumoniae
[8] = tested on: S. pneumoniae+ GC 4465; test: MIC, broth microdilution; settings: Streptococcus pneumoniae
[9] = tested on: E. faecalis GC 4555; test: MIC, broth microdilution; settings: Enterococcus faecalis
[10] = tested on: E. coli GC 4559; test: MIC, broth microdilution; settings: Escherichia coli
[11] = tested on: E. coli; test: Range of MIC for E. coli strains; settings: Escherichia coli
[12] = tested on: E. coli GC 2236; test: MIC, broth microdilution; settings: Escherichia coli
[13] = tested on: E. coli GC 2234; test: MIC, broth microdilution; settings: Escherichia coli
[14] = tested on: S. aureus GC 6466; test: MIC, broth microdilution; settings: Staphylococcus aureus
[15] = tested on: E. faecalis GC 2242; test: MIC, broth microdilution; settings: Enterococcus faecalis
[16] = tested on: E. coli GC 2231; test: MIC, broth microdilution; settings: Escherichia coli
[17] = tested on: S. pyogenes GC 4563; test: MIC, broth microdilution; settings: Streptococcus pyogenes
[18] = tested on: S. typhimurium GC 2172; test: MIC, broth microdilution; settings: Salmonella enterica, TYPHIMURIUM
Method: Antimicrobial susceptibility testing. The in vitro activities of the antibiotics are determined by the broth microdilution method as recommended by the National Committee for Clinical Laboratory Standards (NCCLS) (1). Mueller-Hinton II broth (MHBII)(BBL Cockeysville, Md.) is the medium employed in the testing procedures. Microtiter plates containing serial dilutions of each antimicrobial agent are inoculated with each organism to yield the appropriate density (10^5 CFU/ml) in a 100 μl final volume. The plates are incubated for 18-22 hours at 35° C. in ambient air.
Representative compounds were first incubated in mouse serum for an hour prior to the in vitro testing against a panel of selected gram-positive and gram-negative bacteria strains. All compounds were also pre-incubated in water for an hour prior to testing as control.

[19] = tested on: S. agalactiae GC 4564; test: MIC, broth microdilution; settings: Streptococcus agalactiae
[20] = GC4556, pre-incubation in human serum
[21] = GC4556, pre-incubation in mouse serum
[22] = GC4556, pre-incubation in water
[23] = GC4536, pre-incubation in human serum
[24] = GC4536, pre-incubation in mouse serum
[25] = GC4536, pre-incubation in water
[26] = GC2232, pre-incubation in human serum
[27] = GC2232, pre-incubation in mouse serum
[28] = GC2232, pre-incubation in water
[29] = GC2216, pre-incubation in human serum
[30] = GC2216, pre-incubation in mouse serum
[31] = GC2216, pre-incubation in water
[32] = GC2235, pre-incubation in human serum
[33] = GC2235, pre-incubation in mouse serum
[34] = GC2235, pre-incubation in water
[35] = MRSA, read-out: Range of MIC, Staph (Mouse Serum)
[36] = read-out: Minimum inhibitory concentration (MIC), Staph (Human Serum)
[37] = read-out: Minimum inhibitory concentration (MIC), Staph (Water)
[38] = GC4555, pre-incubation in human serum
[39] = GC4555, pre-incubation in mouse serum
[40] = GC4555, pre-incubation in water
[41] = GC4559, pre-incubation in human serum
[42] = GC4559, pre-incubation in mouse serum
[43] = GC4559, pre-incubation in water
[44] = 20 h, read-out: Range of MIC, E. coli (Mouse Serum)
[45] = read-out: Minimum inhibitory concentration (MIC), E. coli (Human Serum)
[46] = GC2236, pre-incubation in human serum
[47] = GC2236, pre-incubation in mouse serum
[48] = GC2236, pre-incubation in water
[49] = GC2234, pre-incubation in human serum
[50] = GC2234, pre-incubation in mouse serum
[51] = GC2234, pre-incubation in water
[52] = GC6466, pre-incubation in human serum
[53] = GC6466, pre-incubation in mouse serum
[54] = GC6466, pre-incubation in water
[55] = GC2242, pre-incubation in human serum
[56] = GC2242, pre-incubation in mouse serum
[57] = GC2242, pre-incubation in water
[58] = GC2231, pre-incubation in human serum
[59] = GC2231, pre-incubation in mouse serum
[60] = GC2231, pre-incubation in water
[61] = GC4563, pre-incubation in human serum
[62] = GC4563, pre-incubation in mouse serum
[63] = GC4563, pre-incubation in water
[64] = GC4564, pre-incubation in human serum
[65] = GC4564, pre-incubation in mouse serum
[66] = GC4564, pre-incubation in water
[67] = MRSA, read-out: Range of MIC, Staph (Water)

Measured: MIC

CN(C)c1cc(NC(=O)CN(C(=O)OCOC(=O)C2CCC2)C(C)(C)C)c(O)c2c1C[C@H]1C[C@H]3[C@H](N(C)C)C(O)=C(C(N)=O)C(=O)[C@@]3(O)C(O)=C1C2=O [Example 62, ({[(2-{[(5aR,6aS,7S,10aS)-9-(aminocarbonyl)-4,7-bis(dimethylamino)-1,8,10a,11-tetrahydroxy-10,12-dioxo-5,5a,6,6a,7,10,10a,12-octahydrotetracen-2-yl]amino}-2-oxoethyl)(tert-butyl)amino]carbonyl}oxy)methyl cyclobutanecarboxylate]
16 µg/mL: [10]; [43] | [18]; pre-incubation in human serum
4 µg/mL: [5]; [34] | [12]; [48] | [16]; [58]
2 µg/mL: [3]; [26] | [5]; [32] | [13]; [49] | [18]; pre-incubation in mouse serum
0.25 to 1 µg/mL: [6]; [37]
8 µg/mL: [3]; [28] | [10]; [41] | [12]; [46] | [13]; [51] | [16]; [60]
> 64 µg/mL: [18]; pre-incubation in water
2 to 8 µg/mL: [11]; [45]
1 µg/mL: [1]; [20] | [1]; [21] | [1]; [22] | [3]; [27] | [8]; pre-incubation in mouse serum | [9]; [39] | [9]; [40] | [10]; [42] | [13]; [50]
0.12 µg/mL: [7]; pre-incubation in human serum | [7]; pre-incubation in mouse serum | [7]; pre-incubation in water | [17]; [61] | [19]; [64]
0.25 µg/mL: [14]; [54] | [17]; [62] | [17]; [63] | [19]; [65] | [19]; [66]
0.5 to 2 µg/mL: [11]; [44]
0.5 µg/mL: [2]; [23] | [2]; [24] | [2]; [25] | [4]; [29] | [4]; [30] | [4]; [31] | [5]; [33] | [6]; [36] | [8]; pre-incubation in human serum | [8]; pre-incubation in water | [9]; [38] | [12]; [47] | [14]; [52] | [14]; [53] | [15]; [55] | [15]; [56] | [15]; [57] | [16]; [59]
0.5 to 1 µg/mL: [6]; [35]

CCCCC(=O)OCOC(=O)N(CC(=O)Nc1cc(N(C)C)c2c(c1O)C(=O)C1=C(O)[C@]3(O)C(=O)C(C(N)=O)=C(O)[C@@H](N(C)C)[C@@H]3C[C@@H]1C2)C(C)(C)C [Example 61, ({[(2-{[(5aR,6aS,7S,10aS)-9-(aminocarbonyl)-4,7-bis(dimethylamino)-1,8,10a,11-tetrahydroxy-10,12-dioxo-5,5a,6,6a,7,10,10a,12-octahydrotetracen-2-yl]amino}-2-oxoethyl)(tert-butyl)amino]carbonyl}oxy)methyl pentanoate]
4 to 32 µg/mL: [11]; [45]
0.25 to 0.5 µg/mL: [6]; [35]
0.5 to 2 µg/mL: [6]; [67] | [6]; [37]
2 µg/mL: [1]; [20] | [1]; [22] | [9]; [38] | [9]; [40] | [15]; [55] | [15]; [57]
0.12 µg/mL: [7]; pre-incubation in mouse serum | [7]; pre-incubation in water
8 µg/mL: [10]; [41] | [13]; [49] | [16]; [58]
64 µg/mL: [10]; [43] | [18]; pre-incubation in human serum
16 µg/mL: [3]; [28] | [5]; [34] | [12]; [48] | [13]; [51]
0.5 µg/mL: [1]; [21] | [2]; [23] | [2]; [24] | [2]; [25] | [3]; [27] | [4]; [29] | [4]; [30] | [5]; [33] | [8]; pre-incubation in human serum | [8]; pre-incubation in mouse serum | [8]; pre-incubation in water | [12]; [47] | [13]; [50] | [14]; [52] | [14]; [53] | [14]; [54] | [15]; [56] | [17]; [63] | [19]; [64]
0.25 µg/mL: [7]; pre-incubation in human serum | [17]; [61] | [17]; [62] | [19]; [65] | [19]; [66]
32 µg/mL: [16]; [60]
1 µg/mL: [4]; [31] | [9]; [39] | [10]; [42] | [16]; [59] | [18]; pre-incubation in mouse serum
> 64 µg/mL: [18]; pre-incubation in water
4 µg/mL: [3]; [26] | [5]; [32] | [12]; [46]
0.5 to 1 µg/mL: [6]; [36] | [11]; [44]

CN(C)c1cc(NC(=O)CN(C(=O)OCOC(=O)CCC2CCCCC2)C(C)(C)C)c(O)c2c1C[C@H]1C[C@H]3[C@H](N(C)C)C(O)=C(C(N)=O)C(=O)[C@@]3(O)C(O)=C1C2=O [Example 63, ({[(2-{[(5aR,6aS,7S,10aS)-9-(aminocarbonyl)-4,7-bis(dimethylamino)-1,8,10a,11-tetrahydroxy-10,12-dioxo-5,5a,6,6a,7,10,10a,12-octahydrotetracen-2-yl]amino}-2-oxoethyl)(tert-butyl)amino]carbonyl}oxy)methyl 3-cyclohexylpropanoate]
> 64 µg/mL: [3]; [26] | [3]; [28] | [5]; [32] | [5]; [34] | [10]; [41] | [10]; [43] | [11]; read-out: Minimum inhibitory concentration (MIC), E. coli (water) | [11]; read-out: Range of MIC, E. coli (Water) | [12]; [46] | [12]; [48] | [13]; [51] | [16]; [58] | [16]; [60] | [18]; pre-incubation in human serum | [18]; pre-incubation in water
0.5 to 2 µg/mL: [6]; [35] | [11]; [44]
1 µg/mL: [1]; [21] | [2]; [23] | [2]; [24] | [3]; [27] | [4]; [29] | [4]; [30] | [9]; [39] | [12]; [47] | [13]; [50] | [14]; [52] | [15]; [55] | [15]; [56] | [15]; [57] | [16]; [59]
4 µg/mL: [1]; [20] | [2]; [25] | [4]; [31] | [9]; [40]
1 to 4 µg/mL: [6]; [36]
0.25 µg/mL: [19]; [64] | [19]; [65] | [19]; [66]
2 to 16 µg/mL: [6]; [67] | [6]; [37]
2 µg/mL: [9]; [38] | [10]; [42] | [14]; [54] | [18]; pre-incubation in mouse serum
64 µg/mL: [13]; [49]
0.5 µg/mL: [1]; [22] | [5]; [33] | [8]; pre-incubation in human serum | [8]; pre-incubation in mouse serum | [8]; pre-incubation in water | [14]; [53]
0.12 µg/mL: [7]; pre-incubation in human serum | [7]; pre-incubation in mouse serum | [7]; pre-incubation in water | [17]; [61] | [17]; [62] | [17]; [63]
